EP3323412A1, “FORMULATION COMPRISING 4-METHYLPYRAZOLE” (Amalicon Holding AG, priority 2016, dated 2018)

Experiment: in vivo
Design: species or system dogs
Settings: dog, iv, 10 mg/kg
Description: The formulations of 4-MP with PEG-300 and PEG-400 show an oral bioavailability of about 110% when compared with an i.v. formulation at a dose of 10mg/kg in PK studies in dogs.
The following tables 1 to 3 show results of pharmacokinetic studies of the formulation of Example 3 (capsule containing 50 mg 4-MP and 250 mg PEG-400; Table 1) in comparison with a reference formulation (capsule containing 50 mg 4-MP and PEG-8000; Table 2) and IV administration of 4-MP. For these pharmacokinetic studies, 4-MP was administered to dogs at 10 mg/kg body weight. Table 1: Pharmacokinetic parameters of 4-methylpyrazole following oral administration of the formulation of Example 3 at 10 mg/kg: […]

- AUC(0-t) (AUC0-t): 88.3 µg·h/mL
- AUC(0-inf) (AUC0-∞): 145 µg·h/mL
- clearance (CL): 1.15 mL/min/kg
- Cmax (Cmax): 22600 ng/mL
- Vd (Vd): 0.94 L/kg
- Vd (Vdss): 0.89 L/kg
Structure (SMILES): Cc1cn[nH]c1 [4-methylpyrazole, 4-Methylpyrazole]
